Tests used:
Type in all cases: biochemical
[1] = biological target: T1, human VEGFR-2 (Val789-Val1356) (Homo sapiens, UniProt P35968); assay: KDR kinase assay (HTScan VEGFR-2 kit, DELFIA); details: for inhibition at 1 µM: read-out: KDR 1 μM, % of inhibition relative to control; for inhibition at 0.1 µM: read-out: KDR 0.1 μM, % of inhibition relative to control
T1 construct: human VEGFR-2 (Val789-Val1356); GST (N); purchased Cell Signaling Technology; host or cells: baculovirus expression system
Method in brief: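 GST-tagged human VEGFR-2 (Val789-Val1356) from baculovirus, with 1.5 μM biotinylated gastrin precursor peptide and 20 μM ATP in HEPES pH 7.5, Mg/Mn, vanadate, DTT, 1% DMSO. Pre-incubation 5 min, reaction 30 min at room temperature; phosphorylation read by DELFIA.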

[2] = biological target: T2, human EGFR (His672-Ala1210) (Homo sapiens, UniProt P00533); assay: EGFR kinase assay (HTScan kit, DELFIA); details: for inhibition at 0.1 µM: read-out: EGFR 0.1 μM, % of inhibition relative to control; for inhibition at 1 µM: read-out: EGFR 1 μM, % of inhibition relative to control
T2 construct: human EGFR (His672-Ala1210); GST (N); purchased Cell Signaling Technology; host or cells: baculovirus expression system
T2 sequence (P00533 672-1210): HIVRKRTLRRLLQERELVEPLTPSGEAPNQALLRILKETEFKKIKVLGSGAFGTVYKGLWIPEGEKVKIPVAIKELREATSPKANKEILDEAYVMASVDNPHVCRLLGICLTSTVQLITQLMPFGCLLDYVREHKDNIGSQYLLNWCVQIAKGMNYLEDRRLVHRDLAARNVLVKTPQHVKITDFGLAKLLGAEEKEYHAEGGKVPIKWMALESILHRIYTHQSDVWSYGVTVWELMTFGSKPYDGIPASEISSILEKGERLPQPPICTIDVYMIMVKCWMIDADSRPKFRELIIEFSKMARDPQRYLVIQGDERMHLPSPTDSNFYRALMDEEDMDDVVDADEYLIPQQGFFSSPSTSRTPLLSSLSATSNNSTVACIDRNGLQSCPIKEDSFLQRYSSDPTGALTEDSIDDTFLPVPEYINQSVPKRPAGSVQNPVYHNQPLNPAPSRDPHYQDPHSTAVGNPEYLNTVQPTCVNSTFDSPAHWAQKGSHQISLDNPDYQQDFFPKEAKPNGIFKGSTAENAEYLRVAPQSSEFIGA
Description: Compounds 1-100 were treated for their efficacy in inhibiting activities of FLT-3, c-KIT, KDR/Flk-1, PDGFR-beta, EGFR, and PKC kinases by biochemical DELFIA (Dissociation Enhanced Lanthanide FIA) assays according to the procedure described below. The assays were conducted by, Division of Cell Engineering, Biomedical Engineering Research Laboratories, Industrial Technology Research Institute, Bldg. 53, 195, sec. 4, Chung Hsing Rd. Chutung, Hsinchu, Taiwan 310, R.O.C.
The EGFR assay was conducted following the protocol described in Protocol for HTScan® EGFR Kinase Assay Kit (Cell Signaling Technology®). The assay was conducted under the following conditions: EGFR source: The GST-kinase fusion protein was produced using a baculovirus expression system with a construct expressing human EGFR (His672-Ala1210) (GenBank Accession No. NM_005228) with an amino-terminal GST tag, substrate: 1.5 μM This biotinylated peptide contains the residues surrounding Tyr-66 of PTP1B, vehicle: 1% DMSO, pre-incubation time/temperature: 5 minutes at room temperature, incubation time/temperature: 30 minutes at room temperature, incubation buffer: 60 mM HEPES pH 7.5, 5 mM MgCl2, 5 mM MnCl2, 3 μM Na3VO4, 1.25 mM DTT, 20 μM ATP, and quantitative method: DELFIA® Assay.

[3] = biological target: T3, human FLT-3 (Arg571-Ser993) (Homo sapiens, UniProt P36888); assay: FLT-3 kinase assay (HTScan kit, DELFIA); details: for inhibition at 0.1 µM: read-out: FLT-3 0.1 μM, % of inhibition relative to control; for inhibition at 1 µM: read-out: FLT-3 1 μM, % of inhibition relative to control; for IC50: read-out: FLT-3 kinase inhibition (IC50)
T3 construct: human FLT-3 (Arg571-Ser993); GST (N); purchased Cell Signaling Technology; host or cells: baculovirus expression system
T3 sequence (P36888 571-993): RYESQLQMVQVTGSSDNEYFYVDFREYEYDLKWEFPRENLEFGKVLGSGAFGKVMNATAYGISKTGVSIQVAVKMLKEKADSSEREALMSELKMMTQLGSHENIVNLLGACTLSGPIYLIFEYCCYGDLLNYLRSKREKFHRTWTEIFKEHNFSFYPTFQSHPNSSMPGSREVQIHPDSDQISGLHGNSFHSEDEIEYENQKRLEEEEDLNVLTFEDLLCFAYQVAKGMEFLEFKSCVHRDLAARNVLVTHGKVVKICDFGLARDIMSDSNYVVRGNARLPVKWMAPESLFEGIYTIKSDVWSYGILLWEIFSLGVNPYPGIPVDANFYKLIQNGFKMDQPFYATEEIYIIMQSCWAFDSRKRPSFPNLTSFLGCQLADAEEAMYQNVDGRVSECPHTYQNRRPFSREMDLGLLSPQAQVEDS
Method in brief: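 GST-tagged human FLT-3 (Arg571-Ser993, baculovirus-expressed) phosphorylated 1.5 μM biotinylated gastrin precursor peptide with 20 μM ATP in HEPES pH 7.5, Mg/Mn buffer and 1% DMSO. After 5 min preincubation, the reaction ran 30 min at room temperature. Phosphorylation was read by DELFIA.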

[4] = biological target: T4, human c-KIT (Thr544-Val976) (Homo sapiens, UniProt P10721); assay: c-KIT kinase assay (HTScan kit, DELFIA); details: for inhibition at 0.1 µM: read-out: c-KIT 0.1 μM, % of inhibition relative to control; for inhibition at 1 µM: read-out: c-KIT 1 μM, % of inhibition relative to control; for IC50: read-out: c-KIT kinase inhibition (IC50)
T4 construct: human c-KIT (Thr544-Val976); GST (N); purchased Cell Signaling Technology; host or cells: baculovirus expression system
T4 sequence (P10721 544-976): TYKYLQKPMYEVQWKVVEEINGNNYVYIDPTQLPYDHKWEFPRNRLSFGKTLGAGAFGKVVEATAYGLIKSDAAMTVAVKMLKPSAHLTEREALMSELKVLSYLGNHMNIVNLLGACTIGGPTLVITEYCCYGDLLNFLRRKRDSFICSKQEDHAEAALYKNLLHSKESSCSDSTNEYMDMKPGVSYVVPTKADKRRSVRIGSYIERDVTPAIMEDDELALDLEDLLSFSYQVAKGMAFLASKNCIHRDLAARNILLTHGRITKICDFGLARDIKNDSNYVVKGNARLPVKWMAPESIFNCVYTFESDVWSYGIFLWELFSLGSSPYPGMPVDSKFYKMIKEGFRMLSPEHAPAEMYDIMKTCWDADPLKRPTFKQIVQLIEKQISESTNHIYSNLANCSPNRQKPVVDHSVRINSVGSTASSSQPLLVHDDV
Method in brief: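 GST-tagged human c-KIT (Thr544-Val976) from baculovirus, with 1.5 μM biotinylated KDR Tyr-996 peptide and 20 μM ATP in HEPES pH 7.5 buffer containing Mg2+/Mn2+ and 1% DMSO. Enzyme and compound pre-incubated 5 min, reaction run 30 min at room temperature; phosphorylation detected by DELFIA.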

T1 sequence (P35968 789-1356): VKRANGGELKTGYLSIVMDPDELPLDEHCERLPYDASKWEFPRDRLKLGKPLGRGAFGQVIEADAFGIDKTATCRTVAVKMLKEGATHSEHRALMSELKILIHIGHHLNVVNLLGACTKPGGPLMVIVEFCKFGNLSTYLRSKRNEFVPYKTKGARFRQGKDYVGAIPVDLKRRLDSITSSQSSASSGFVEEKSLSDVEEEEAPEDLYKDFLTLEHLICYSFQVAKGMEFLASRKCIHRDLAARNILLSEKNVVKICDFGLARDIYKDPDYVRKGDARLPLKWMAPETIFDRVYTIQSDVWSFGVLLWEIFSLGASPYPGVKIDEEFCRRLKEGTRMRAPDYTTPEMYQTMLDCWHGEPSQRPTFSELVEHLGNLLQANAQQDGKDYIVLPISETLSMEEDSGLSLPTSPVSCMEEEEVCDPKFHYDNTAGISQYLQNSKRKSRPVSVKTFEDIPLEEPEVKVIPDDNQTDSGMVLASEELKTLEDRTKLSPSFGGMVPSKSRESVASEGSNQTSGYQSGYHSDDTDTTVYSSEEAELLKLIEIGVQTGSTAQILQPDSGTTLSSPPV

Row | Structure (SMILES) | inhibition at 1 µM ([1]; compound at 1 μM) [%] | inhibition at 0.1 µM ([2]; compound at 0.1 μM) [%] | inhibition at 1 µM ([2]; compound at 1 μM) [%] | inhibition at 0.1 µM ([3]; compound at 0.1 μM) [%] | inhibition at 1 µM ([3]; compound at 1 μM) [%] | inhibition at 0.1 µM ([4]; compound at 0.1 μM) [%] | inhibition at 1 µM ([4]; compound at 1 μM) [%] | inhibition at 0.1 µM ([1]; compound at 0.1 μM) [%] | KDR 0.1 μM, % of inhibition relative to control ([1]; compound at 0.1 μM) [%] | KDR 1 μM, % of inhibition relative to control ([1]; compound at 1 μM) [%] | EGFR 0.1 μM, % of inhibition relative to control ([2]; compound at 0.1 μM) [%] | EGFR 1 μM, % of inhibition relative to control ([2]; compound at 1 μM) [%] | FLT-3 0.1 μM, % of inhibition relative to control ([3]; compound at 0.1 μM) [%] | FLT-3 1 μM, % of inhibition relative to control ([3]; compound at 1 μM) [%] | c-KIT 0.1 μM, % of inhibition relative to control ([4]; compound at 0.1 μM) [%] | c-KIT 1 μM, % of inhibition relative to control ([4]; compound at 1 μM) [%] | IC50 [3] [nM] | IC50 [4] [nM] | IC50 ([1]; read-out: KDR kinase inhibition (IC50)) [nM]
1 | O=C1Nc2ccc(F)cc2/C1=C/c1cc(Br)c2cccccc1-2 [Compound 45, 3-(3-Bromo-azulen-1-ylmethylene)-5-fluoro-1,3-dihydro-indol-2-one] | 41.9 | 2.5 | – | 51.4 | 69.7 | 73.9 | 73.9 | 32.8 | – | – | – | – | – | – | – | – | – | – | –
2 | CN(C)c1nc2cccccc-2c1/C=C1/C(=O)Nc2ccccc21 [Compound 35, 3-(2-Dimethylamino-cyclohepta[b]pyrrol-3-ylmethylene)-1,3-dihydro-indol-2-one, with propan-2-ol] | 20.3 | 9.5 | 12.1 | – | – | – | – | – | – | – | – | – | – | – | – | – | – | – | –
3 | COc1ccc2c(c1)/C(=C\c1ccc3cccccc1-3)C(=O)N2 [Compound 43, 3-Azulen-1-ylmethylene-5-methoxy-1,3-dihydro-indol-2-one] | 6.8 | 6.2 | 11.9 | – | 24.3 | 14.7 | 14.7 | – | – | – | – | – | – | – | – | – | – | – | –
4 | O=C1Nc2c(Cl)cccc2/C1=C/c1ccc2cccccc1-2 [Compound 42, 3-Azulen-1-ylmethylene-7-chloro-1,3-dihydro-indol-2-one] | 13.6 | 8.8 | 10.8 | 8.9 | 24.3 | 8.3 | 8.3 | 6 | – | – | – | – | – | – | – | – | – | – | –
5 | O=C1Nc2ccc(F)cc2/C1=C/c1cc2cccccc-2c1 [Compound 41, 3-Azulen-2-ylmethylene-5-fluoro-1,3-dihydro-indol-2-one] | 30.4 | 6.4 | 9.4 | 74.7 | 87.6 | 76.6 | 76.6 | 25.2 | – | – | – | – | – | – | – | – | 43.4 | 6 | –
6 | Cc1cc(/C=C2/C(=O)Nc3ccccc32)c2cccccc1-2 [Compound 36, 3-(3-Methyl-azulen-1-ylmethylene)-1,3-dihydro-indol-2-one] | 0.3 | 9.6 | 10.9 | – | 39.3 | 49.2 | 49.2 | – | – | – | – | – | – | – | – | – | – | – | –
7 | O=C1Nc2ccc(-c3ccccc3)cc2/C1=C/c1ccc2cccccc1-2 [Compound 34, 3-Azulen-1-ylmethylene-5-phenyl-1,3-dihydro-indol-2-one] | 18.2 | 6.1 | 11.7 | 0.8 | 1.9 | – | – | 8.9 | – | – | – | – | – | – | – | – | – | – | –
8 | Cc1cc(C=C2C(=O)Nc3ccccc32)c2cccccc1-2 [Compound 37, 3-(3-Methyl-azulen-1-ylmethylene)-1,3-dihydro-indol-2-one] | 27.6 | 2.9 | 13.6 | 5.9 | 61.5 | 53.2 | 53.2 | – | – | – | – | – | – | – | – | – | – | – | –
9 | Cc1cc(/C=C2\C(=O)Nc3ccc(F)cc32)c2cccccc1-2 [Compound 39, 5-Fluoro-3-(3-methyl-azulen-1-ylmethylene)-1,3-dihydro-indol-2-one] | 20.2 | 6.1 | 14.1 | 45.6 | 93.2 | 80.1 | 80.1 | – | – | – | – | – | – | – | – | – | 491 | 128 | 6380
10 | COc1ccc2c(c1)/C(=C/c1ccc3cccccc1-3)C(=O)N2 [Compound 44, 3-Azulen-1-ylmethylene-5-methoxy-1,3-dihydro-indol-2-one] | 38.4 | 4.7 | 9.3 | 5.7 | 8.2 | 7.2 | 7.2 | – | – | – | – | – | – | – | – | – | – | – | –
11 | O=C1Nc2ccc(F)cc2/C1=C\c1cc2cccccc-2c1 [Compound 40, 3-Azulen-2-ylmethylene-5-fluoro-1,3-dihydro-indol-2-one] | 22.2 | 10 | 17.3 | 84.3 | 95.5 | 80 | 80 | 13.8 | – | – | – | – | – | – | – | – | – | – | –

Further lines, results first:

Row | inhibition at 1 µM ([1]; compound at 1 μM) [%] | inhibition at 0.1 µM ([2]; compound at 0.1 μM) [%] | inhibition at 1 µM ([2]; compound at 1 μM) [%] | inhibition at 0.1 µM ([3]; compound at 0.1 μM) [%] | inhibition at 1 µM ([3]; compound at 1 μM) [%] | inhibition at 0.1 µM ([4]; compound at 0.1 μM) [%] | inhibition at 1 µM ([4]; compound at 1 μM) [%] | inhibition at 0.1 µM ([1]; compound at 0.1 μM) [%] | KDR 0.1 μM, % of inhibition relative to control ([1]; compound at 0.1 μM) [%] | KDR 1 μM, % of inhibition relative to control ([1]; compound at 1 μM) [%] | EGFR 0.1 μM, % of inhibition relative to control ([2]; compound at 0.1 μM) [%] | EGFR 1 μM, % of inhibition relative to control ([2]; compound at 1 μM) [%] | FLT-3 0.1 μM, % of inhibition relative to control ([3]; compound at 0.1 μM) [%] | FLT-3 1 μM, % of inhibition relative to control ([3]; compound at 1 μM) [%] | c-KIT 0.1 μM, % of inhibition relative to control ([4]; compound at 0.1 μM) [%] | c-KIT 1 μM, % of inhibition relative to control ([4]; compound at 1 μM) [%] | IC50 [3] [nM] | IC50 [4] [nM] | IC50 ([1]; read-out: KDR kinase inhibition (IC50)) [nM] | Structure (SMILES)
12 | 13.8 | 7.8 | 10.4 | 4.5 | 61.6 | 32.2 | 32.2 | – | – | – | – | – | – | – | – | – | – | – | – | Cc1ccc2c(c1)/C(=C/c1ccc3cccccc1-3)C(=O)N2 [Compound 48, 3-Azulen-1-ylmethylene-5-methyl-1,3-dihydro-indol-2-one]
13 | 33.2 | 11 | 18.5 | 45.9 | 73.5 | 70.9 | 70.9 | 10 | – | – | – | – | – | – | – | – | – | – | – | O=C1Nc2ccc(F)cc2/C1=C/c1cc(Cl)c2cccccc1-2 [Compound 46, 3-(3-Chloro-azulen-1-ylmethylene)-5-fluoro-1,3-dihydro-indol-2-one]
14 | 26.4 | – | 11.5 | 38.4 | 82.6 | 73.9 | 73.9 | – | – | – | – | – | – | – | – | – | – | – | – | O=C1Nc2ccc(F)cc2/C1=C\c1cc(Br)c2cccccc1-2 [Compound 51, 3-(3-Bromo-azulen-1-ylmethylene)-5-fluoro-1,3-dihydro-indol-2-one]
15 | – | – | – | – | – | – | – | – | 22.3 | 25.8 | 7.9 | 10.4 | 4.0 | 29.6 | 19.5 | 19.5 | – | – | – | CN(C)S(=O)(=O)c1ccc2c(c1)/C(=C/c1ccc3cccccc1-3)C(=O)N2 [Compound 50, (3Z)-3-(((3aZ,5Z,7Z)-azulen-1-yl)methylene)-5-(N,N-dimethylsulfonyl)indolin-2-one]
16 | 34 | 8.3 | 14.6 | 0.5 | 48.6 | 30.7 | 30.7 | 7.8 | – | – | – | – | – | – | – | – | – | – | – | Cc1ccc2c(c1)/C(=C\c1ccc3cccccc1-3)C(=O)N2 [Compound 47, 3-Azulen-1-ylmethylene-5-methyl-1,3-dihydro-indol-2-one]
